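Cultured in 96-well plates, cells were exposed to test compound for 48 hours across five concentrations. TGI marks complete inhibition of growth.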
Assays:
Assay in all cases: NCI anticancer screen, dose series, 48 h
[1] = system: NCI-H226 lung
[2] = system: OVCAR-3 ovarian
[3] = system: RXF 393 renal
[4] = system: EKVX NSCLC
[5] = system: NCI-H23 lung
[6] = system: UO-31 renal
[7] = system: CCRF-CEM leukemia
[8] = system: PC-3 prostate
[9] = system: K-562 leukemia
[10] = system: HL-60(TB) leukemia
[11] = system: UACC-257 melanoma
[12] = system: UACC-62 melanoma
[13] = system: A498 renal
[14] = system: MDA-N
[15] = system: OVCAR-5 ovarian
[16] = system: RPMI-8226 leukemia
[17] = system: A549 NSCLC
[18] = system: KM12 colon
[19] = system: M14 melanoma
[20] = system: T-47D breast

| SMILES | TGI [1] | TGI [2] | TGI [3] | TGI [4] | TGI [5] | TGI [6] | TGI [7] | TGI [8] | TGI [9] | TGI [10] | TGI [11] | TGI [12] | TGI [13] | TGI [14] | TGI [15] | TGI [16] | TGI [17] | TGI [18] | TGI [19] | TGI [20] |
| --- | --- | --- | --- | --- | --- | --- | --- | --- | --- | --- | --- | --- | --- | --- | --- | --- | --- | --- | --- | --- |
| CN(C)CC(CN(C)C)c1ccccn1 | > 100 µM | > 100 µM | > 100 µM | > 100 µM | > 100 µM | > 100 µM | > 100 µM | > 100 µM | > 100 µM | > 100 µM | > 100 µM | > 100 µM | > 100 µM | > 100 µM | > 100 µM | > 100 µM | > 100 µM | > 100 µM | > 100 µM |  |
| N#[O+].O=S(=O)([O-])[O-].[NH2-].[NH2-].[NH2-].[NH2-].[NH2-].[Ru+5] | > 100 µM | > 100 µM | > 100 µM | > 100 µM | > 100 µM |  | > 100 µM |  |  | > 100 µM | > 100 µM | > 100 µM | > 100 µM |  | > 100 µM |  | > 100 µM | > 100 µM |  |  |
| CC(=O)OCC1OC(N2C(c3ccccc3)=CC(c3ccccc3)C(C#N)=C2S)C(OC(C)=O)C(OC(C)=O)C1OC(C)=O (stereo not drawn) | > 100 µM | > 63.1 µM | 12.9 µM |  | 40.5 µM | 51 µM | > 100 µM |  | > 100 µM | > 100 µM | 16.5 µM | 7.67 µM | 44.2 µM | 15.1 µM | > 100 µM | > 100 µM | > 46.4 µM | > 44.9 µM | 74 µM | > 24.3 µM |
| O=C(c1ccccc1)c1c2ccccn2c2cccc[n+]12 | > 100 µM | > 100 µM | > 100 µM | > 100 µM |  |  | > 100 µM | > 100 µM | > 100 µM | > 100 µM | > 100 µM | > 100 µM | > 100 µM |  | > 100 µM | > 100 µM | > 100 µM | > 100 µM | > 100 µM | > 100 µM |
| C=CCN1C(=O)/C(=C/c2ccccc2)NC1=S | > 100 µM | > 100 µM | > 100 µM | > 100 µM | > 100 µM | > 100 µM | > 100 µM | > 100 µM | > 100 µM | > 100 µM | > 100 µM | > 100 µM | > 100 µM |  | > 100 µM | > 100 µM | > 100 µM | > 100 µM | > 100 µM | > 100 µM |
| COc1cc(C2c3cc4c(cc3[C@@H](Nc3ccccc3)C3CO[C@@H](OC)[C@H]23)OCO4)cc(OC)c1O (stereo partly drawn) |  |  |  | > 25 µM |  | 8.03 µM | 11.3 µM | > 25 µM | > 25 µM | 8.24 µM | > 25 µM |  |  |  | 23.8 µM | 10.2 µM | 12.1 µM | > 25 µM | > 25 µM | > 25 µM |
| CC(=O)O[C@@H]1C=C(C)[C@H](CBr)O[C@@]2(C)CC[C@H](Br)C(C)(C)[C@H]12 | > 100 µM |  | > 100 µM | > 100 µM | > 100 µM | > 100 µM | > 100 µM | > 100 µM | > 100 µM | > 100 µM | > 100 µM | > 100 µM | > 100 µM | > 100 µM | > 100 µM | > 100 µM | > 100 µM | > 100 µM | > 100 µM |  |
| O=C1c2ccccc2S[C@@H](O)[C@@H]2CCCN12 |  | > 100 µM | > 100 µM | > 100 µM | > 100 µM | > 100 µM | > 100 µM |  | > 100 µM | > 100 µM | > 100 µM | > 100 µM |  |  | > 100 µM | > 100 µM | > 100 µM | > 100 µM | > 100 µM |  |
| CC(=O)OC1CC2OC(Cc3ccccc32)O1 (stereo not drawn) | > 100 µM | > 100 µM | > 100 µM | > 100 µM | > 100 µM | > 100 µM | > 100 µM |  | > 100 µM | > 100 µM | > 100 µM | > 100 µM |  |  |  | > 100 µM | > 100 µM | > 100 µM | > 100 µM |  |
| Cc1oc2nc(N(C)C)nc(Cl)c2c1C | > 100 µM | > 100 µM | > 100 µM | > 100 µM | > 100 µM | > 100 µM | > 100 µM | > 100 µM | > 100 µM | > 100 µM | > 100 µM | > 100 µM | > 100 µM |  | > 100 µM | > 100 µM | > 100 µM | > 100 µM | > 100 µM | > 100 µM |
| Cc1cc(NS(=O)(=O)c2ccc(N=Nc3c(O)c(C(=O)O)cc4ccccc34)cc2)nc(C)n1 | > 100 µM | > 100 µM | > 100 µM | > 100 µM |  | > 100 µM | > 100 µM | > 100 µM | > 100 µM | > 100 µM | > 100 µM | > 100 µM |  |  | > 100 µM | > 100 µM | > 100 µM | > 100 µM | > 100 µM |  |
| Cc1cc(C)cc(Nc2nnc3n2S(=O)(=O)c2cc(C#N)c(Cl)cc2S3)c1 | 26.1 µM | 3.34 µM | 3.26 µM | 21.2 µM | 4.35 µM | 17 µM | 4.32 µM |  | > 100 µM | 19.4 µM | 3.32 µM | 15.4 µM | 31.4 µM |  | 9.55 µM |  | 32.9 µM | 4.46 µM | 28.2 µM | 31.6 µM |
| Cc1nnc([C@@]2(C)CC[C@H]3[C@@H](CC=C4C[C@@H](O)CC[C@@]43C)[C@@H]2CC#N)o1 | > 100 µM | > 100 µM | > 100 µM | > 100 µM | > 100 µM | > 100 µM | > 100 µM | > 100 µM | > 100 µM | > 100 µM | > 100 µM | > 100 µM | > 100 µM | > 100 µM | > 100 µM | > 100 µM | > 100 µM | > 100 µM | > 100 µM |  |

— PubChem BioAssay (NCI)
